Data published in PubChem BioAssay (NCI).
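Interpolation was linear, between the two tested concentrations surrounding the appropriate level; five concentrations were tested over 48 hours in 96-well plates. TGI is the concentration that stops growth completely.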

Legend:
Assay in all cases: DTP human tumour cell line panel, 48 h
SW-620 colon = test system: SW-620 colon
HT29 colon = test system: HT29 colon
NCI-H460 lung = test system: NCI-H460 lung
M14 melanoma = test system: M14 melanoma
T-47D breast = test system: T-47D breast
OVCAR-3 ovarian = test system: OVCAR-3 ovarian
OVCAR-4 ovarian = test system: OVCAR-4 ovarian
SK-MEL-5 melanoma = test system: SK-MEL-5 melanoma
ACHN renal = test system: ACHN renal
BT-549 breast = test system: BT-549 breast
MCF7 breast = test system: MCF7 breast
MOLT-4 leukemia = test system: MOLT-4 leukemia
KM12 colon = test system: KM12 colon
SNB-75 CNS = test system: SNB-75 CNS
NCI/ADR-RES ovarian = test system: NCI/ADR-RES ovarian
SF-539 CNS = test system: SF-539 CNS
CCRF-CEM leukemia = test system: CCRF-CEM leukemia
MALME-3M melanoma = test system: MALME-3M melanoma
DU-145 prostate = test system: DU-145 prostate
U251 CNS = test system: U251 CNS
MDA-MB-435 = test system: MDA-MB-435
A498 renal = test system: A498 renal
SK-OV-3 ovarian = test system: SK-OV-3 ovarian
SR leukemia = test system: SR leukemia
OVCAR-8 ovarian = test system: OVCAR-8 ovarian
786-0 renal = test system: 786-0 renal
RPMI-8226 leukemia = test system: RPMI-8226 leukemia
LOX IMVI melanoma = test system: LOX IMVI melanoma
PC-3 prostate = test system: PC-3 prostate
EKVX NSCLC = test system: EKVX NSCLC
RXF 393 renal = test system: RXF 393 renal
CAKI-1 renal = test system: CAKI-1 renal
SK-MEL-28 melanoma = test system: SK-MEL-28 melanoma
NCI-H226 lung = test system: NCI-H226 lung
OVCAR-5 ovarian = test system: OVCAR-5 ovarian
UACC-257 melanoma = test system: UACC-257 melanoma
HOP-62 NSCLC = test system: HOP-62 NSCLC
SF-295 CNS = test system: SF-295 CNS
SN12C renal = test system: SN12C renal
SNB-19 CNS = test system: SNB-19 CNS
NCI-H23 lung = test system: NCI-H23 lung
SK-MEL-2 melanoma = test system: SK-MEL-2 melanoma
HCC-2998 colon = test system: HCC-2998 colon
HOP-92 NSCLC = test system: HOP-92 NSCLC
HCT-116 colon = test system: HCT-116 colon
UACC-62 melanoma = test system: UACC-62 melanoma
K-562 leukemia = test system: K-562 leukemia
NCI-H522 lung = test system: NCI-H522 lung
IGROV1 ovarian = test system: IGROV1 ovarian
HCT-15 colon = test system: HCT-15 colon
A549 NSCLC = test system: A549 NSCLC
COLO 205 colon = test system: COLO 205 colon
HL-60(TB) leukemia = test system: HL-60(TB) leukemia
MDA-MB-231 breast = test system: MDA-MB-231 breast
MDA-N = test system: MDA-N
UO-31 renal = test system: UO-31 renal
TK-10 renal = test system: TK-10 renal
SF-268 CNS = test system: SF-268 CNS

COc1ccc(NC(C)=O)cc1N1C(=O)/C(=C\c2cccc(Oc3ccccc3)c2)S(=O)(=O)C1c1ccccc1 (stereo unspecified) was tested, and the TGI (SW-620 colon) was > 100 µM, the TGI (HT29 colon) was 43.7 µM and the TGI (NCI-H460 lung) was > 100 µM. The TGI (M14 melanoma) was > 100 µM, the TGI (T-47D breast) was > 100 µM and the TGI (OVCAR-3 ovarian) was > 100 µM. For the same compound, the TGI (OVCAR-4 ovarian) was > 100 µM, the TGI (SK-MEL-5 melanoma) was > 100 µM and the TGI (ACHN renal) was > 100 µM. For the same compound, the TGI (BT-549 breast) was > 100 µM, the TGI (MCF7 breast) was > 100 µM and the TGI (MOLT-4 leukemia) was 59 µM. For the same compound, the TGI (KM12 colon) was > 100 µM, the TGI (SNB-75 CNS) was > 100 µM and the TGI (NCI/ADR-RES ovarian) was > 100 µM. For the same compound, the TGI (SF-539 CNS) was 74.6 µM, the TGI (CCRF-CEM leukemia) was 83.8 µM and the TGI (MALME-3M melanoma) was > 100 µM. The TGI (DU-145 prostate) was > 100 µM, the TGI (U251 CNS) was > 100 µM and the TGI (MDA-MB-435) was > 100 µM. For the same compound, the TGI (A498 renal) was > 100 µM, the TGI (SK-OV-3 ovarian) was > 100 µM and the TGI (SR leukemia) was 23.9 µM. The TGI (OVCAR-8 ovarian) was > 100 µM, the TGI (786-0 renal) was > 100 µM and the TGI (RPMI-8226 leukemia) was 73.6 µM. The TGI (LOX IMVI melanoma) was > 100 µM, the TGI (PC-3 prostate) was > 100 µM and the TGI (EKVX NSCLC) was > 100 µM. The TGI (RXF 393 renal) was > 100 µM, the TGI (CAKI-1 renal) was 44.8 µM and the TGI (SK-MEL-28 melanoma) was > 100 µM. For the same compound, the TGI (NCI-H226 lung) was > 100 µM, the TGI (OVCAR-5 ovarian) was > 100 µM and the TGI (UACC-257 melanoma) was > 100 µM. The TGI (HOP-62 NSCLC) was > 100 µM, the TGI (SF-295 CNS) was > 100 µM and the TGI (SN12C renal) was 73 µM. For the same compound, the TGI (SNB-19 CNS) was > 100 µM, the TGI (NCI-H23 lung) was > 100 µM and the TGI (SK-MEL-2 melanoma) was > 100 µM. For the same compound, the TGI (HCC-2998 colon) was > 100 µM, the TGI (HOP-92 NSCLC) was > 100 µM and the TGI (HCT-116 colon) was 31.3 µM. For the same compound, the TGI (UACC-62 melanoma) was > 100 µM, the TGI (K-562 leukemia) was 68.9 µM and the TGI (NCI-H522 lung) was > 100 µM. The TGI (IGROV1 ovarian) was > 100 µM, the TGI (HCT-15 colon) was > 100 µM and the TGI (A549 NSCLC) was > 100 µM. For the same compound, the TGI (COLO 205 colon) was > 100 µM, the TGI (HL-60(TB) leukemia) was 40.5 µM and the TGI (MDA-MB-231 breast) was > 100 µM. For the same compound, the TGI (MDA-N) was 53.6 µM, the TGI (UO-31 renal) was > 100 µM and the TGI (TK-10 renal) was > 100 µM.

For COc1ccc(-c2cc(-c3ccccc3)nc(N)c2-c2ccc3ccccc3c2)cc1, the TGI (HT29 colon) was 2.28 µM, the TGI (NCI-H460 lung) was 2.9 µM and the TGI (M14 melanoma) was 5.68 µM. For the same compound, the TGI (T-47D breast) was 3.38 µM, the TGI (OVCAR-3 ovarian) was 5.08 µM and the TGI (OVCAR-4 ovarian) was 2.42 µM. The TGI (SK-MEL-5 melanoma) was 3.27 µM, the TGI (ACHN renal) was 4.77 µM and the TGI (BT-549 breast) was 3.09 µM. The TGI (MCF7 breast) was 3.36 µM, the TGI (MOLT-4 leukemia) was 7.38 µM and the TGI (KM12 colon) was 3.2 µM. The TGI (SNB-75 CNS) was 5 µM, the TGI (CCRF-CEM leukemia) was > 100 µM and the TGI (MALME-3M melanoma) was 2.75 µM. For the same compound, the TGI (MDA-MB-435) was 4.68 µM, the TGI (A498 renal) was 5.08 µM and the TGI (SK-OV-3 ovarian) was 17.4 µM. For the same compound, the TGI (SR leukemia) was 7.31 µM, the TGI (OVCAR-8 ovarian) was 3.09 µM and the TGI (786-0 renal) was 3.1 µM. It also gave a TGI (RPMI-8226 leukemia) of 4.74 µM, a TGI (LOX IMVI melanoma) of 3.1 µM and a TGI (PC-3 prostate) of 5.45 µM. It also gave a TGI (EKVX NSCLC) of 3.66 µM, a TGI (RXF 393 renal) of 3.39 µM and a TGI (CAKI-1 renal) of 15.1 µM. For the same compound, the TGI (NCI-H226 lung) was 2.99 µM, the TGI (OVCAR-5 ovarian) was 3.71 µM and the TGI (UACC-257 melanoma) was 3.52 µM. For the same compound, the TGI (SF-268 CNS) was 9.2 µM, the TGI (HOP-62 NSCLC) was 4.8 µM and the TGI (SN12C renal) was 3.43 µM. For the same compound, the TGI (SNB-19 CNS) was 2.57 µM, the TGI (NCI-H23 lung) was 3.71 µM and the TGI (SK-MEL-2 melanoma) was 3.88 µM. For the same compound, the TGI (HCC-2998 colon) was 3.29 µM, the TGI (HOP-92 NSCLC) was 2.91 µM and the TGI (HCT-116 colon) was 2.5 µM. The TGI (UACC-62 melanoma) was 2.96 µM, the TGI (K-562 leukemia) was > 100 µM and the TGI (IGROV1 ovarian) was 3.11 µM. It also gave a TGI (HCT-15 colon) of 2.92 µM, a TGI (A549 NSCLC) of 5.39 µM and a TGI (COLO 205 colon) of 3.21 µM. For the same compound, the TGI (MDA-MB-231 breast) was 3.17 µM, the TGI (MDA-N) was 3.17 µM and the TGI (UO-31 renal) was 5.13 µM. It also gave a TGI (TK-10 renal) of 11.6 µM.
